Test results as given in ChEMBL document CHEMBL5380818, “BAY-6096: A Potent, Selective, and Highly Water-Soluble Adrenergic α2B Antagonist” (J Med Chem, 2023).
Values after ≈ are worked out from the molar mass of the structure shown.

How the values were obtained:
[1] = Metabolic stability in rat liver microsomes at pH 7.4 in presence of NADPH/UDPGA by LC/MS/MS analysis; assay type: ADME, Microsome
[2] = Permeability across apical to basolateral side human Caco-2 cells incubated for 2 hrs measured by LC/MS/MS analysis; assay type: ADME, cell-based; conditions: caco-2, 2 h
[3] = Chemical stability of the compound assessed as decomposition at pH 7 measured upto 24 hrs; assay type: physicochemical; conditions: buffer, pH 7, 24 h
[4] = Chemical stability of the compound assessed as decomposition at pH 10 measured upto 24 hrs; assay type: physicochemical; conditions: buffer, pH 10, 24 h
[5] = Metabolic stability in cryopreserved dog liver hepatocytes at 10 uM incubated upto 4 hrs by LC/MS/MS analysis; assay type: ADME, cell-based, Canis lupus familiaris, Hepatocyte
[6] = Metabolic stability in cryopreserved rat liver hepatocytes at 10 uM incubated upto 4 hrs by LC/MS/MS analysis; assay type: ADME, cell-based, Hepatocyte
[7] = Mutagenecity in Salmonella typhimurium in presence of s9 fraction by Ames test; assay type: toxicity, subcellular; conditions: salmonella enterica subsp. enterica serovar typhimurium
[8] = Metabolic stability in cryopreserved human liver hepatocytes at 10 uM incubated upto 4 hrs by LC/MS/MS analysis; assay type: ADME, cell-based, Hepatocyte
[9] = Chemical stability of the compound assessed as decomposition at pH 1 measured upto 24 hrs; assay type: physicochemical; conditions: buffer, pH 1, 24 h
[10] = Metabolic stability in dog liver microsomes at pH 7.4 in presence of NADPH/UDPGA by LC/MS/MS analysis; assay type: ADME, Canis lupus familiaris, Microsome
[11] = Solubility of the compound in pH 7 shaken for 24 hrs; assay type: physicochemical; conditions: buffer
[12] = molecular target: T1, Alpha-2B adrenergic receptor (Homo sapiens, UniProt P18089); test: Antagonist activity at human recombinant adrenergic alpha2B receptor expressed in CHO cell treated with compound for 5 mins followed by norepinephrine measured for 50 secs by microtitre plate method; assay type: functional, cell-based
T1 sequence (P18089 whole entry): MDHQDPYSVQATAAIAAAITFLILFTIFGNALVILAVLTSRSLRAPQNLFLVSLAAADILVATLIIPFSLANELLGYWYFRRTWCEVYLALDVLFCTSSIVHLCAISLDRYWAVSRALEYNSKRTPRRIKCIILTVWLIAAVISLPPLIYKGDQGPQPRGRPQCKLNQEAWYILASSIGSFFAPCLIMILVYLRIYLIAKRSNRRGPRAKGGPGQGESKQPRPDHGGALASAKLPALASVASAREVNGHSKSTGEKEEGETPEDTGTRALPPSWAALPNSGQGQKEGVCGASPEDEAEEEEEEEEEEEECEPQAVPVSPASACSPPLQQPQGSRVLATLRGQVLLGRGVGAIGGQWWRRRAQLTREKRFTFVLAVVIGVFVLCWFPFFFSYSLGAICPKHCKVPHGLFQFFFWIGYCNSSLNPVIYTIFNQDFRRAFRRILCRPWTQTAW

[13] = Plasma protein binding in human plasma assessed as unbound fraction by equilibrium dialysis base LC-MS/MS analysis; assay type: ADME, cell-free
Cytochrome P450 1A2 [14] = molecular target: T2, Cytochrome P450 1A2 (Homo sapiens, UniProt P05177); test: Induction of human hepatocyte CYP1A2 treated upto 211 uM for 48 hrs by measuring mRNA expression using delta delta Ct method; assay type: ADME, cell-based; conditions: hepatocytes
T2 sequence (P05177 whole entry): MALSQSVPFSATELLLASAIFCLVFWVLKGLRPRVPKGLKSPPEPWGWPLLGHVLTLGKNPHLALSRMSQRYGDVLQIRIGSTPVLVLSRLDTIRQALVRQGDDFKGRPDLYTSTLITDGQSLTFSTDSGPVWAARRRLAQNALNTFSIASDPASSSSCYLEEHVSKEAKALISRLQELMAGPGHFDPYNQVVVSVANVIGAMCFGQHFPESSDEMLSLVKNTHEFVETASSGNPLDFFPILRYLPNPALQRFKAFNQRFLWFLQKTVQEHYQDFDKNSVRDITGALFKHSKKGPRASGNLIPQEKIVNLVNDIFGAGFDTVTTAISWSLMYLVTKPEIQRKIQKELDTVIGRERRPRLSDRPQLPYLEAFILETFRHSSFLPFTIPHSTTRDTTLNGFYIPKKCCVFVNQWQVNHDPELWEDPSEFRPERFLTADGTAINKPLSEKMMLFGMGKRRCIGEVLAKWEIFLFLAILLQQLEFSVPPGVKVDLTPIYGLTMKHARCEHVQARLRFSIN

[15] = Mean residence time in Wistar rat plasma 0.3 mg/kg, iv measured upto 24 hrs by LC-MS/MS analysis; assay type: ADME, organism-based; conditions: in vivo
[16] = Stability of the compound assessed as no adsorption to the sterile filter at pH 7.4 in 0.9% NaCl by measuring feasibility of sterilization using HPLC analysis; assay type: physicochemical; conditions: buffer
Cytochrome P450 2C9 = Cytochrome P450 2C9 (Homo sapiens, UniProt P11712); test: Inhibition of human liver microsome CYP2C9 at 0.6 to 20 uM measured by LC/MS/MS analysis; assay type: ADME; conditions: microsomes, dose 0.6-20 µM
[17] = molecular target: Voltage-gated inwardly rectifying potassium channel KCNH2 (Homo sapiens, UniProt Q12809); test: Inhibition of hERG by electrode whole cell voltage clamp method; assay type: toxicity
[18] = Plasma protein binding in rat plasma assessed as unbound fraction by equilibrium dialysis base LC-MS/MS analysis; assay type: ADME, cell-free
[19] = Chemical stability of the compound in 0.9% NaCl at pH 7.4 measured upto 1 week at 90 degC; assay type: physicochemical; conditions: buffer, pH 7.4, 168 h; time < 1 weeks
[20] = Clearance in Wistar rat plasma 0.3 mg/kg, iv measured upto 24 hrs by LC-MS/MS analysis; assay type: ADME, organism-based; conditions: in vivo
[21] = Clearance in dog plasma 0.3 mg/kg, iv measured 0.033 to 24 hrs by LC-MS/MS analysis; assay type: ADME, organism-based, Canis lupus familiaris; conditions: time 0.033-24 hrs
[22] = Chemical stability of the compound at pH 1 measured upto 7 days; assay type: physicochemical; conditions: buffer, pH 1, 168 h; time < 7 day
[23] = Chemical stability of the compound in 0.9% NaCl at pH 7.4 measured for 13 week at 40 degC; assay type: physicochemical; conditions: buffer, pH 7.4, 2184 h; time 13 weeks
[24] = Plasma protein binding in dog plasma assessed as unbound fraction by equilibrium dialysis base LC-MS/MS analysis; assay type: ADME, cell-free, Canis lupus familiaris
[25] = Chemical stability of the compound at pH 7 measured upto 7 days; assay type: physicochemical; conditions: buffer, pH 7, 168 h; time < 7 day
[26] = molecular target: Voltage-dependent L-type calcium channel subunit alpha-1C (Homo sapiens, UniProt Q13936); test: Inhibition of human Cav1.2 channel; assay type: toxicity
Cytochrome P450 2C8 = molecular target: T3, Cytochrome P450 2C8 (Homo sapiens, UniProt P10632); test: Inhibition of human liver microsome CYP2C8 at 0.6 to 20 uM measured by LC/MS/MS analysis; assay type: ADME; conditions: microsomes, dose 0.6-20 µM
T3 sequence (P10632 whole entry): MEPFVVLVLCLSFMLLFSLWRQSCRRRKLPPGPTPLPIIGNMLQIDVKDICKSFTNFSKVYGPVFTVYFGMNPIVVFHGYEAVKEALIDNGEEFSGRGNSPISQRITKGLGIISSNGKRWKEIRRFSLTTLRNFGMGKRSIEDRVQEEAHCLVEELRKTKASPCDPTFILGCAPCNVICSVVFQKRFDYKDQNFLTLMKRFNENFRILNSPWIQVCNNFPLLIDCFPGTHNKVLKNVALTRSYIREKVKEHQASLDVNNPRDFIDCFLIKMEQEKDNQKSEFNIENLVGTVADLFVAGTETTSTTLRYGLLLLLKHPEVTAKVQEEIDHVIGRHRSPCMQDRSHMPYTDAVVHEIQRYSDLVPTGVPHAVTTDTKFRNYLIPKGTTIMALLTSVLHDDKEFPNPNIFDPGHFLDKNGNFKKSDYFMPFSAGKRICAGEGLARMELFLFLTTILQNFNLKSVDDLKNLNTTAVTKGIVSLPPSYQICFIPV

[27] = molecular target: Sodium channel protein type 5 subunit alpha (Homo sapiens, UniProt Q14524); test: Inhibition of human Nav1.5 channel; assay type: toxicity
[28] = Plasma protein binding in monkey plasma assessed as unbound fraction by equilibrium dialysis base LC-MS/MS analysis; assay type: ADME, cell-free, Macaca mulatta; conditions: rhesus monkey
[29] = Volume of distribution at steady state in Wistar rat plasma 0.3 mg/kg, iv measured upto 24 hrs by LC-MS/MS analysis; assay type: ADME, organism-based; conditions: in vivo
Cytochrome P450 2D6 = Cytochrome P450 2D6 (Homo sapiens, UniProt P10635); test: Inhibition of human liver microsome CYP2D6 at 0.6 to 20 uM measured by LC/MS/MS analysis; assay type: ADME; conditions: microsomes, dose 0.6-20 µM
Cytochrome P450 3A4 [30] = molecular target: T4, Cytochrome P450 3A4 (Homo sapiens, UniProt P08684); test: Inhibition of human liver microsome CYP3A4 at 0.6 to 20 uM measured by LC/MS/MS analysis; assay type: ADME; conditions: microsomes, dose 0.6-20 µM
Cytochrome P450 1A2 [31] = molecular target: T2, Cytochrome P450 1A2; test: Inhibition of human liver microsome CYP1A2 at 0.6 to 20 uM measured by LC/MS/MS analysis; assay type: ADME; conditions: microsomes, dose 0.6-20 µM
[32] = Volume of distribution at steady state in dog plasma 0.3 mg/kg, iv measured 0.033 to 24 hrs by LC-MS/MS analysis; assay type: ADME, organism-based, Canis lupus familiaris; conditions: time 0.033-24 hrs, read-out: Vdss
[33] = Chemical stability of the compound at pH 10 measured upto 7 days; assay type: physicochemical; conditions: buffer, pH 10, 168 h; time < 7 day
Cytochrome P450 3A4 [34] = molecular target: T4, Cytochrome P450 3A4; test: Induction of human hepatocyte CYP3A4 treated upto 211 uM for 48 hrs by measuring mRNA expression using delta delta Ct method; assay type: ADME, cell-based; conditions: hepatocytes
[35] = Stability of the compound assessed as no adsorption to the sterile filter at pH 7.4 in 0.9% NaCl by measuring feasibility of sterilization at 121 degC for 15 mins using HPLC analysis; assay type: physicochemical; conditions: buffer

T4 sequence (P08684 whole entry): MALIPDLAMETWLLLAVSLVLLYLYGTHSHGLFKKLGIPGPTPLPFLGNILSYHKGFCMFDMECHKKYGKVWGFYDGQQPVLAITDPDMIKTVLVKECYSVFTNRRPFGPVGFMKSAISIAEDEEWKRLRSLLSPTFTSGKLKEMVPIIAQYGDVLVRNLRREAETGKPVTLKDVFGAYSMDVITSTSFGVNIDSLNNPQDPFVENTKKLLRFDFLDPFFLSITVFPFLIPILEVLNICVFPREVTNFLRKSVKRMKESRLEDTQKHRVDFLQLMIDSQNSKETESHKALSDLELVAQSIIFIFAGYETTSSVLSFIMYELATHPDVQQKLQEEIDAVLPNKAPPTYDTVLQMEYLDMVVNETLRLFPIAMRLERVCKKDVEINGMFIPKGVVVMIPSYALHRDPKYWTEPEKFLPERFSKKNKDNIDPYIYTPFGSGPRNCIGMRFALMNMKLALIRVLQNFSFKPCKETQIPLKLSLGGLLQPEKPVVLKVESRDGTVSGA
Sequence of Voltage-dependent L-type calcium channel subunit alpha-1C (Q13936 whole entry): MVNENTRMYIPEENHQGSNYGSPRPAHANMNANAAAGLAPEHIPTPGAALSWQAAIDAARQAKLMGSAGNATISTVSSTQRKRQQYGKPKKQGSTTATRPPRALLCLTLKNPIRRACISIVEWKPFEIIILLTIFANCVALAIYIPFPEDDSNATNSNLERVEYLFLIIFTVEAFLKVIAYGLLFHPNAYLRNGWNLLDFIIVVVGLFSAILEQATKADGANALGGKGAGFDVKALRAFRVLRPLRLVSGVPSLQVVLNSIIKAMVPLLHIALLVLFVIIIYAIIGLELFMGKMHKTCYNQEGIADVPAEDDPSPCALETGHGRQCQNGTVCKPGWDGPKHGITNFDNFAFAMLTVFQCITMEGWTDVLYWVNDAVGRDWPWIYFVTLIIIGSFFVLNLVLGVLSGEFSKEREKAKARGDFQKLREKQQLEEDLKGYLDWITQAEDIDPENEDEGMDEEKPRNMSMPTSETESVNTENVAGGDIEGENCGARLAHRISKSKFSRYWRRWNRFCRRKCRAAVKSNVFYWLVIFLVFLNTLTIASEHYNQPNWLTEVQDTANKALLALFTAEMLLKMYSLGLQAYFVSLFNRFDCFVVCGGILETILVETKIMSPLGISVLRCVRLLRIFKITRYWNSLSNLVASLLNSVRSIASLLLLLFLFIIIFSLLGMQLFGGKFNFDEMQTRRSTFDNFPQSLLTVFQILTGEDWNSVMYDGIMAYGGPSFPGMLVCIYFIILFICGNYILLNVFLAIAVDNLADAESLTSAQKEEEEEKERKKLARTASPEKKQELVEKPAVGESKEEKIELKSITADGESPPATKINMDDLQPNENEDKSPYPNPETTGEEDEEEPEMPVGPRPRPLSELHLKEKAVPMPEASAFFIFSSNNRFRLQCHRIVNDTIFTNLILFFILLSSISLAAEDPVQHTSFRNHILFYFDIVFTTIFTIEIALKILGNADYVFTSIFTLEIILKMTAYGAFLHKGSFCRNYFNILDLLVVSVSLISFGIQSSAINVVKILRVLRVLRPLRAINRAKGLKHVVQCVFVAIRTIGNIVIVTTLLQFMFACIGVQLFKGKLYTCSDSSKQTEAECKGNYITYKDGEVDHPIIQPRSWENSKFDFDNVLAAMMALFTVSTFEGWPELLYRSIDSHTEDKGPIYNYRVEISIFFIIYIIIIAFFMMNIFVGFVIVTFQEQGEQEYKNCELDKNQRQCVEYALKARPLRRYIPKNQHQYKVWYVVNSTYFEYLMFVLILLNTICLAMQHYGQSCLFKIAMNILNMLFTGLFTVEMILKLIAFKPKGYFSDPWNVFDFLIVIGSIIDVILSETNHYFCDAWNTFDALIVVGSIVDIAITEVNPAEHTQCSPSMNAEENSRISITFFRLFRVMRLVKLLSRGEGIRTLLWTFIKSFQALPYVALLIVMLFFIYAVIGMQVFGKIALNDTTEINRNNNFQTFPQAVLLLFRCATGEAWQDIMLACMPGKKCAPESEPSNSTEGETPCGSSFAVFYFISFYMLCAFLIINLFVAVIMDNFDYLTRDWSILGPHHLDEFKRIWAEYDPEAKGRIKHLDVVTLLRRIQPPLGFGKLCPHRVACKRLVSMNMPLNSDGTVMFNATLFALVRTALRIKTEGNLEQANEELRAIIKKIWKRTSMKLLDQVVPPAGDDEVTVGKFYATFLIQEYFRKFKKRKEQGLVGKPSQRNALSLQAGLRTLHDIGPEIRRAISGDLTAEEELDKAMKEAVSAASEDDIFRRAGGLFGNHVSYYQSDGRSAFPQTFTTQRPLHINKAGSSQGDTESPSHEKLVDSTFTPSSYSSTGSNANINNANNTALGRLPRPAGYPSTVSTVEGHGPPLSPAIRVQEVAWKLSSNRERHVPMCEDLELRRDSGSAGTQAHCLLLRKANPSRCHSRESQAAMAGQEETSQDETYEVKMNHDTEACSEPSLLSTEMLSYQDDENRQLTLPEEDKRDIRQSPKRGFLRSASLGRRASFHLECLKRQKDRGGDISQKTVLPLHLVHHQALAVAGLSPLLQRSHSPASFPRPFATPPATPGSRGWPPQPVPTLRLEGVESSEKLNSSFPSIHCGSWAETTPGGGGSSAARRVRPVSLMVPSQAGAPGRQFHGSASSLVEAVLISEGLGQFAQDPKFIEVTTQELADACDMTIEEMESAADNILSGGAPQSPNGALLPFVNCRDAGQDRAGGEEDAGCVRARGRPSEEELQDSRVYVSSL
Sequence of Cytochrome P450 2D6 (P10635 whole entry): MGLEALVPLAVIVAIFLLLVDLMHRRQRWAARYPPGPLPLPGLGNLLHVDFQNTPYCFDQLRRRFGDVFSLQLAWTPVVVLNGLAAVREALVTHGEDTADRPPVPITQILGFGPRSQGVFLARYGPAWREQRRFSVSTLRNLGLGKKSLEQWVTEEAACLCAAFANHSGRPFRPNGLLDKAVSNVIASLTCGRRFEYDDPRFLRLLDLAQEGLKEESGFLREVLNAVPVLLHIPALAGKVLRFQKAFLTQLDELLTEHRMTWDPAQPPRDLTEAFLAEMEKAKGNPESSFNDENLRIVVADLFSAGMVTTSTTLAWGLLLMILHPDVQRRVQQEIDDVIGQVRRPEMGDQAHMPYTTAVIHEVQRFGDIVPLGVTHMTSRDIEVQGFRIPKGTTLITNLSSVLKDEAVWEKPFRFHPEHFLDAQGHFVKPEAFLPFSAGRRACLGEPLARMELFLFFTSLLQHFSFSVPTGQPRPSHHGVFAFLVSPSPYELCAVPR
Sequence of Cytochrome P450 2C9 (P11712 whole entry): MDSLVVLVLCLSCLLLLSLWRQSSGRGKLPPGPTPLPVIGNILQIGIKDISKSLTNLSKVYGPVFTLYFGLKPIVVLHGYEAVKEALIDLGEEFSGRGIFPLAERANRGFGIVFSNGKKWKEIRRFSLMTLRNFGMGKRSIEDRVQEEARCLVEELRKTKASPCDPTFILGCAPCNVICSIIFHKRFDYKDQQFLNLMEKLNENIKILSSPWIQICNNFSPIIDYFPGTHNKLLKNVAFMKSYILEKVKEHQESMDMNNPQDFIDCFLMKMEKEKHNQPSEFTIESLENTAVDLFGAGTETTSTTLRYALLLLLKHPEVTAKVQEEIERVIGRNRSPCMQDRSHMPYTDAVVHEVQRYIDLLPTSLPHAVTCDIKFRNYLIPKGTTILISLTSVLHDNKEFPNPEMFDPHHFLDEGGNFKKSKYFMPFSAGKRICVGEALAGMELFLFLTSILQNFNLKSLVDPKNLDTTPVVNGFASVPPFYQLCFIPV
Sequence of Voltage-gated inwardly rectifying potassium channel KCNH2 (Q12809 whole entry): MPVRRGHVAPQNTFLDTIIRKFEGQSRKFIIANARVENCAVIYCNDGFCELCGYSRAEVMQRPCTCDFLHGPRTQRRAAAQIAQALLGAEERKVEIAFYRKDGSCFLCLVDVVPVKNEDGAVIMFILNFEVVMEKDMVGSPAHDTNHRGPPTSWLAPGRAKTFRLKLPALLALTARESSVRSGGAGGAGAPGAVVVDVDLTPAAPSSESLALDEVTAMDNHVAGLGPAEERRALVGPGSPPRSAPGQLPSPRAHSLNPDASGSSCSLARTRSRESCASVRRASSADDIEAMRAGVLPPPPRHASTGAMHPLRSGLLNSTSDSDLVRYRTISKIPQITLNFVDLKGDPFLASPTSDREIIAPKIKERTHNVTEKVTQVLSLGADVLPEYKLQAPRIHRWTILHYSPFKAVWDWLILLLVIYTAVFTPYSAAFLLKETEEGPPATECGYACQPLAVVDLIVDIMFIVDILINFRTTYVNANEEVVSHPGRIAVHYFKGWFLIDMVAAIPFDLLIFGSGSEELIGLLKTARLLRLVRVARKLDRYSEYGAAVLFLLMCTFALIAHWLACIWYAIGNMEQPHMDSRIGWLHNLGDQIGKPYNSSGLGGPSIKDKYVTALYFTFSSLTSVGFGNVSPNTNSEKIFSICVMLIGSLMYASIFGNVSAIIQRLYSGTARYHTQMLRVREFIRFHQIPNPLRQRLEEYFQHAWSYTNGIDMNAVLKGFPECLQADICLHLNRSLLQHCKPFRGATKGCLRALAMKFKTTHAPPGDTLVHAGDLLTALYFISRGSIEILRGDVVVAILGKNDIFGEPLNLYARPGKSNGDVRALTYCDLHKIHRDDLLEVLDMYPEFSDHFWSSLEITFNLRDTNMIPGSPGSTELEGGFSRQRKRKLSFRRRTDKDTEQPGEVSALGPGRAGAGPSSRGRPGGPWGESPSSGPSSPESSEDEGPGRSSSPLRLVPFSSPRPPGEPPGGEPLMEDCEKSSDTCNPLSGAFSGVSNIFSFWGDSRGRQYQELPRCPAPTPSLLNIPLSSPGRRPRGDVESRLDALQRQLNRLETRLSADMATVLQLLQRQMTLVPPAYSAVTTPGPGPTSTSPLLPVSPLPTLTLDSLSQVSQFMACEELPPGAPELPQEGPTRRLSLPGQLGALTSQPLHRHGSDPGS

Structure (SMILES): CNc1cc[n+](CC(=O)Nc2ccc3c(c2)ncn3-c2c(C)noc2C)cc1.O=C[O-]
- Stability [1]: Stable
- permeability [2]: 0.36 ×10⁻⁶ cm/s
- Stability [3]: Stable
- Stability [4]: Stable
- Stability [5]: Stable
- Stability [6]: Stable
- Activity [7]: Toxic
- Stability [8]: Stable
- Stability [9]: Stable
- Stability [10]: Stable

Structure (SMILES): COc1ccccc1-n1cnc2cc(NC(=O)CCc3ccccn3)ccc21
- solubility thermodynamic at 24 h [11]: 20 µg/mL (≈ 53.7 µM)

Structure (SMILES): Cc1noc(C)c1N
- Activity [7]: Non-Toxic

Structure (SMILES): CNc1ccncc1
- Activity [7]: Non-Toxic

Structure (SMILES): COc1ccccc1-n1cnc2cc(NC(C)=O)ccc21
- solubility thermodynamic at 24 h [11]: 300 µg/mL (≈ 1070 µM)

Structure (SMILES): CNc1cc[n+](CC(=O)Nc2cccc(C)c2)cc1.O=C[O-]
- Activity [7]: Non-Toxic

Structure (SMILES): CNc1cc[n+](CC(=O)Nc2cnc3c(c2)ncn3-c2ccccc2OC)cc1.O=C[O-]
- Activity [7]: Toxic

Structure (SMILES): CNc1cc[n+](CCNC(=O)c2ccc3c(c2)ncn3-c2c(C)noc2C)cc1.O=C[O-]
- Activity [7]: Non-Toxic

Structure (SMILES): CNc1cc[n+](CC(Nc2ccc3c(c2)ncn3-c2c(C)noc2C)C(F)(F)F)cc1 (racemic)
- IC50 [12]: 7.05 µM

Structure (SMILES): Cc1noc(C)c1-n1cnc2cc(N)ccc21
- Activity [7]: Toxic

Structure (SMILES): CNc1cc[n+](CCNC(=O)c2ccn3c(-c4c(C)noc4C)cnc3c2)cc1.[Cl-]
- Fu [13]: 85%
- Activity (Cytochrome P450 1A2 [14]): Not Active
- MRT [15]: 6 min
- Stability [16]: Stable
- inhibition (INH) (Cytochrome P450 2C9): Not Active
- inhibition (INH) [17]: Not Active
- Fu [18]: 79%
- Stability [19]: Stable
- CL [20]: 71.7 mL/min/kg
- permeability [2]: 0.3 ×10⁻⁶ cm/s
- clearance [21]: 26.7 mL/min/kg
- Stability [22]: Stable
- Stability [23]: Stable
- Fu [24]: 82%
- Stability [25]: Stable
- inhibition (INH) [26]: Not Active
- inhibition (INH) (Cytochrome P450 2C8): Not Active
- inhibition (INH) [27]: Not Active
- Fu [28]: 92%
- Vdss [29]: 0.5 L/kg
- inhibition (INH) (Cytochrome P450 2D6): Not Active
- inhibition (INH) (Cytochrome P450 3A4 [30]): Not Active
- inhibition (INH) (Cytochrome P450 1A2 [31]): Not Active
- Vd [32]: 0.6 L/kg
- Stability [33]: Stable
- Activity [7]: Non-Toxic
- Activity (Cytochrome P450 3A4 [34]): Not Active
- Stability [35]: Stable
